Results reported in ChEMBL document CHEMBL1201862, “PubChem BioAssay data set” (2004).
Activity calls are given as the source filed them.

Key:
Genome polyprotein = Genome polyprotein (dengue virus type 2, UniProt P29990); test: flavivirus cap methylation enzyme inhibition – biochemical, confirmation dose response, primary screen (AID 588689); type: functional
Large T antigen = Large T antigen (Simian virus 40, UniProt P03070); type: functional, Betapolyomavirus macacae;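 also: Confirmatory-stage PubChem screen for compounds that inhibit SV40 T antigen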
cells [1] = type: functional, cell-based
cells [2] = type: functional, cell-based; remark: listed apart in the source
Protein skinhead-1 = biological target: T1, Protein skinhead-1 (Caenorhabditis elegans, UniProt P34707); type: functional
T1 sequence (P34707 whole entry): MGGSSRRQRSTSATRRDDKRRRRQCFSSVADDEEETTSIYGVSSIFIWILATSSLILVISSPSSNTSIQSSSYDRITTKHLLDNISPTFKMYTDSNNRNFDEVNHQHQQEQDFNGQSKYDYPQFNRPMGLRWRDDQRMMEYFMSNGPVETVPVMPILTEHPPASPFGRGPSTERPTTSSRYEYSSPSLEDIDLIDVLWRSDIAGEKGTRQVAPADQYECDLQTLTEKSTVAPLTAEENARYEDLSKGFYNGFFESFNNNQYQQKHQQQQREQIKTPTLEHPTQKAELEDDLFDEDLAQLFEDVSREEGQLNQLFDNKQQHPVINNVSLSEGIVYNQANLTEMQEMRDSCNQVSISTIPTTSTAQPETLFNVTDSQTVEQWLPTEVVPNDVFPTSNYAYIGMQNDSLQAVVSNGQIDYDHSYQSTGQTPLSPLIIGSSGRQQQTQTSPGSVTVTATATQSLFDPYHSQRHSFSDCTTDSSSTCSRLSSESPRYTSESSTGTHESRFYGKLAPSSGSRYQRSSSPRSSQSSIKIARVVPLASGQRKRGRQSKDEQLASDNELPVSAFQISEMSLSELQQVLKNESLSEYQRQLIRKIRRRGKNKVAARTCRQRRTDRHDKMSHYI

Streptokinase A = biological target: T2, Streptokinase A (Streptococcus pyogenes serotype M1, UniProt P10520); test: viability-normalized secreted streptokinase activity reduction – plasminogen activation absorbance, OD405, dose response (AID 1914); type: functional, Streptococcus pyogenes M1 GAS;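 also: secreted streptokinase activity via plasminogen activation per viability signal from cell pellet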
T2 sequence (P10520 whole entry): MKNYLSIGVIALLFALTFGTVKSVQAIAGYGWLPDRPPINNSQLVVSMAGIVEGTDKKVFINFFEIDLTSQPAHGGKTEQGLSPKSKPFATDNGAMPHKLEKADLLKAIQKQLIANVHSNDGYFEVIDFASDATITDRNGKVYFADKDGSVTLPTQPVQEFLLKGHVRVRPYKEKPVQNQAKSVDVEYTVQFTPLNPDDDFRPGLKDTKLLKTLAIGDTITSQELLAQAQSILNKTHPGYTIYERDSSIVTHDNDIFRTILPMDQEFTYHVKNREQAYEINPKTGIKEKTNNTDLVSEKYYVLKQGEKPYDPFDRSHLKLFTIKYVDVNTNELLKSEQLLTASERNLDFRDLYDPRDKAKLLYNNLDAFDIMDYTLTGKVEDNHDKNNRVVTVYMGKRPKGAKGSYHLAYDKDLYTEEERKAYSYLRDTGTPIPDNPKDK

Streptococcus = test: GAS UMAA2166 growth inhibition – luminescence, BacTiterGlo, counter-screen for streptokinase expression inhibitor project, dose response (AID 1915); type: functional, organism-based;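 also: potency for reduction of bacterial viability or growth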
[3] = tested on: Streptococcus sp. 'group A'; test: Streptococcus pyogenes SK(-)GAS viability under kanamycin – luminescence, BacTiterGlo, confirmation, counter-screen for streptokinase expression inhibitor project, dose response (AID 1900); type: functional, organism-based
Nonstructural protein 1 = Nonstructural protein 1 (Influenza A virus, UniProt Q194T2); type: functional, Influenza A virus (A/California/07/2009(H1N1))
[4] = non-specific 3'UTR reporter inhibition in Clone20-Shn3RL – cell-based, Renilla luciferase, cherry-picked, counter-screen for Shn3 inhibitor project, dose response (AID 624133); type: functional
[5] = viability of uninfected HEp-2 cells – cell-based, HTS, cytotoxicity control for RSV inhibitor project, dose response (AID 2410); type: functional; conditions: human respiratory syncytial virus
[6] = biological target: T3, Corticotropin-releasing factor receptor 2/Corticotropin-releasing factor-binding protein (Homo sapiens, UniProt P24387+Q13324); test: activators of CRF receptor 2 with binding protein – uHTS hits, confirmation (AID 602473); type: functional; conditions: read-out: EC50_Mean
T3 sequence (Q13324 whole entry): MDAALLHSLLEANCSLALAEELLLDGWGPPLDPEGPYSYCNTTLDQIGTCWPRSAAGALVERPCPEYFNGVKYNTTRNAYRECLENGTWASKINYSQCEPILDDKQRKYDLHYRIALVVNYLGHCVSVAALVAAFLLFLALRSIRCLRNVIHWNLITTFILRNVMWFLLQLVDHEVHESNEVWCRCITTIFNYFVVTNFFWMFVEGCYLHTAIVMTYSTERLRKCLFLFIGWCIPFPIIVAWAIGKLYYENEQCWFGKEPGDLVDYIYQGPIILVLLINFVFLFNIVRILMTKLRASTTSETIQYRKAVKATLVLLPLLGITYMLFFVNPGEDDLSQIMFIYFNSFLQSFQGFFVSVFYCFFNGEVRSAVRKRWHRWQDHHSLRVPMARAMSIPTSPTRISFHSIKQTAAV
T3 sequence (P24387 whole entry): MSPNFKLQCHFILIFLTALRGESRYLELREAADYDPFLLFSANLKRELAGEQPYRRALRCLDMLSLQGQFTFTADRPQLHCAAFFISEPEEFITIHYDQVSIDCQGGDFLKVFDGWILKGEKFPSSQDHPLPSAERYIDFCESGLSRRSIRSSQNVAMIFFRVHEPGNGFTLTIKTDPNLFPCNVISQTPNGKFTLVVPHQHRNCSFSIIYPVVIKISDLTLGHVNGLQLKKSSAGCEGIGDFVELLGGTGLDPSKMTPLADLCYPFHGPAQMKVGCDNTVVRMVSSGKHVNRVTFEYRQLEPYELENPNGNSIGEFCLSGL

Paired box protein Pax-8 = Paired box protein Pax-8 (Homo sapiens, UniProt Q06710); test: PAX8 transcriptional activity inhibition in RMG-I – RMG-I cells, luciferase, cherry-pick, dose response (AID 687027); type: functional, cell-based;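 also: luciferase reporter driven by Pax8 target thyroperoxidase promoter measured by SteadyGlo luminescence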
[7] = biological target: T4, Rac GTPase-activating protein 1 (Homo sapiens, UniProt Q9H0H5); test: blockers of MgcRacGAP-driven Rac1 GTP hydrolysis – biochemical, ADP Hunter fluorescence, primary and confirmatory, confirmation (AID 624330); type: functional
T4 sequence (Q9H0H5 whole entry): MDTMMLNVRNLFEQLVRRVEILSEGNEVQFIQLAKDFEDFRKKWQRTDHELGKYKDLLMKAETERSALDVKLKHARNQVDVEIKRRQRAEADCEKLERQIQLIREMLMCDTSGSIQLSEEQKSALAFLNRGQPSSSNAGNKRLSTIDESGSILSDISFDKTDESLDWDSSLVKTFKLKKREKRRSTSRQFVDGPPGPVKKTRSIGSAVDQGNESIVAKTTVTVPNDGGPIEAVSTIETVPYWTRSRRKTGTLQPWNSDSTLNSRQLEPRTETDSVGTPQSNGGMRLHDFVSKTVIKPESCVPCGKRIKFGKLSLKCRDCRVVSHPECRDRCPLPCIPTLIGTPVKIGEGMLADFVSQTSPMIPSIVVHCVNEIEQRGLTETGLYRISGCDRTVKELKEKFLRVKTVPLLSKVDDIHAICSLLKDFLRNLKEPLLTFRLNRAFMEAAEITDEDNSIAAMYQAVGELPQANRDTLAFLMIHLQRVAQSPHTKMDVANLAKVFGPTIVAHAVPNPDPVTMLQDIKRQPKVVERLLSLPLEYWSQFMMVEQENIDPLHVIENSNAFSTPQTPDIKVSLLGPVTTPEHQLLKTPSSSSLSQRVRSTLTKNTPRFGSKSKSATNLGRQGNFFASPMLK

[8] = P. falciparum Dd2 growth inhibitors, dose response, SYBR Green, cherry-picked samples (AID 1159567); type: functional, cell-based

Large T antigen, sequence (P03070 whole entry): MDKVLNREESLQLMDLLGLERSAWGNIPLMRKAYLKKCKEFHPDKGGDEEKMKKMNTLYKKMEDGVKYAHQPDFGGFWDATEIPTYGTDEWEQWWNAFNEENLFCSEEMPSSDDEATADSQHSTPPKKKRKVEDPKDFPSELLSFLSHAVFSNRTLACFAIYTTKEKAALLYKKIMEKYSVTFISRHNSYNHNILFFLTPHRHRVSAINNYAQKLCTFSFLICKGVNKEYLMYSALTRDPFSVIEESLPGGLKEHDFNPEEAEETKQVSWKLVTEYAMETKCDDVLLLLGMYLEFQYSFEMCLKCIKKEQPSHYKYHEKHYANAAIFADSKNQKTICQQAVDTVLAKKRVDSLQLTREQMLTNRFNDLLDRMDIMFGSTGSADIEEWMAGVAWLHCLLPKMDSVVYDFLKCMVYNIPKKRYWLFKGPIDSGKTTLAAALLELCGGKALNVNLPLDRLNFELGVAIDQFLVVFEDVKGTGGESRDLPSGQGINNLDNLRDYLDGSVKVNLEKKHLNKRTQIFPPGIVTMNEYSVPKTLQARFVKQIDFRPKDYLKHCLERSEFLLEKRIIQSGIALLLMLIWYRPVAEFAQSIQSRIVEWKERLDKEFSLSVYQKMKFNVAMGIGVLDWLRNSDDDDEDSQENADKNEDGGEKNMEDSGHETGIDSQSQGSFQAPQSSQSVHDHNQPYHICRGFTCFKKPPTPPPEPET
Genome polyprotein, sequence (P29990 2492-3391 limits assumed): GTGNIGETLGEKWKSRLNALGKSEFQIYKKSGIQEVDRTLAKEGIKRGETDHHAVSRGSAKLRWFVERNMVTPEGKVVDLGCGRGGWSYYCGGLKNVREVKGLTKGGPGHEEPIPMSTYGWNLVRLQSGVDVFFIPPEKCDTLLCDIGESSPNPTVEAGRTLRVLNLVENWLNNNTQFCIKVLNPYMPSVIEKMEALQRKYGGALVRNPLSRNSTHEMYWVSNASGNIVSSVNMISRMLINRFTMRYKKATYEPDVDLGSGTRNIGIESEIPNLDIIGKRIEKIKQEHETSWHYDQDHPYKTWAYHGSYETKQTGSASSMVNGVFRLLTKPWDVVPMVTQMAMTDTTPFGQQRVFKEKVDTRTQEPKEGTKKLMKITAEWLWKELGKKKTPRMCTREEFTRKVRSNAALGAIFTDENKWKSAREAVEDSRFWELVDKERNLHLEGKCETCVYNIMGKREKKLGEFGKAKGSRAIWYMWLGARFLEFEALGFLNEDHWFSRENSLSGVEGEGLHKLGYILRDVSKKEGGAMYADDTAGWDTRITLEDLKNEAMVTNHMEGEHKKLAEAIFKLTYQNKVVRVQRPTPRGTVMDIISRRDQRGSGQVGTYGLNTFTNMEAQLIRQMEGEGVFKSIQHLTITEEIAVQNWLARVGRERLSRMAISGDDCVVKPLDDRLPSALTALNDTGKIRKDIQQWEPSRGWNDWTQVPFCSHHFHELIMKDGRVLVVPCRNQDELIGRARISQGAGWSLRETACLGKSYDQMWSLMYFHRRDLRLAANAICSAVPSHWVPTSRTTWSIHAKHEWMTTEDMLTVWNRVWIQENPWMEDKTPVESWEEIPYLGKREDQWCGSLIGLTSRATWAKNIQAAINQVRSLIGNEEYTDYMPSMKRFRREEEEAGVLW
Nonstructural protein 1, sequence (Q194T2 whole entry): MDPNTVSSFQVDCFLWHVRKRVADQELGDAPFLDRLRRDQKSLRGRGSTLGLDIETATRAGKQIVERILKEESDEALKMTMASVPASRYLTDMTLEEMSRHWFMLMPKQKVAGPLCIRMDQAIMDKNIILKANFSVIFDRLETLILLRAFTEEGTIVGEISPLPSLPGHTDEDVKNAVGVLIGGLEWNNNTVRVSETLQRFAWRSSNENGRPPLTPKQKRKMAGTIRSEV
Paired box protein Pax-8, sequence (Q06710 whole entry): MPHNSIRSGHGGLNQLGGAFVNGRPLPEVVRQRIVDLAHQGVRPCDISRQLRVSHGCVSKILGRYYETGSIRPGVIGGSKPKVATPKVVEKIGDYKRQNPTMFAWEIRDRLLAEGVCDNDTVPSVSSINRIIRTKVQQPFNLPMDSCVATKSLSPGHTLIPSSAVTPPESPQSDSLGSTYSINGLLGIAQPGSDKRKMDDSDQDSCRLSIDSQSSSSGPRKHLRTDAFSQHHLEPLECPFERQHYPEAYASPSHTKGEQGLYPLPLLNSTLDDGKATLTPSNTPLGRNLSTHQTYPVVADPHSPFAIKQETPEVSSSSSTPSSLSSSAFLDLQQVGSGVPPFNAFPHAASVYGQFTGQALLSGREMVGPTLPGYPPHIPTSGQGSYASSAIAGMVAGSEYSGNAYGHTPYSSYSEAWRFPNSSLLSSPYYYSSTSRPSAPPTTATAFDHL

O=C1NN(c2cccc(Br)c2)C(=O)/C1=C\c1ccc(O)cc1
IC50 (Genome polyprotein): > 100 µM (active) | IC50 (Large T antigen): 17.2 µM (active)

CCOc1ccccc1NC(=O)CSc1ncnc2c1oc1ccccc12
EC50 (cells [1]): > 350 µM (not active) | EC50 (cells [2]): > 350 µM (not active) | IC50 (Protein skinhead-1): > 100 µM (inactive)

CCC(Oc1ccccc1)C(=O)Nc1ccccc1N1CCCCC1 (stereo not drawn)
EC50 (Streptokinase A): 15.8 µM (active) | EC50 (Streptococcus): 19.9 µM (active) | EC50 [3]: 10.3 µM (active)

Cc1ccc(-c2nnn(CC(=O)N(Cc3cccs3)C(C(=O)NC3CCCCC3)c3ccco3)n2)o1 (stereo not drawn)
EC50 (cells [1]): > 350 µM (not active) | EC50 (cells [2]): > 350 µM (not active)

Oc1ccccc1C=NCCN1CCN(CCN=Cc2ccccc2O)C1c1ccccc1O (stereo not drawn)
IC50 (Nonstructural protein 1): 1.75 µM (active)

Cc1noc(NS(=O)(=O)c2ccc(NC(=O)c3ccccc3NS(=O)(=O)c3ccc(F)c(F)c3)cc2)c1C
IC50 (Genome polyprotein): 33.2 µM (active)

COc1ccc(S(=O)(=O)NCCC(=O)OCC(=O)NC2CC2)cc1
AC50 [4]: 33.7 µM (active)

C=CCN1C(=O)/C(=C/c2ccc(O)cc2)S/C1=N/c1nccs1
CC50 [5]: 22.4 µM (active) | EC50 [6]: > 53 µM (inactive)

O=C(Nc1ccc(F)cc1)N1CCCCN2[C@@H](CO)[C@@H](c3ccc(-c4cccc(F)c4)cc3)[C@@H]2C1
AC50 (Paired box protein Pax-8): 21.3 µM (active)

CC1=C(C(=O)O)N2C(=O)C(NC(=O)Cc3ccccc3)C2SC1 (stereo not drawn)
EC50 (Streptokinase A): > 150 µM (not active) | EC50 (Streptococcus): 2.68 µM (active) | EC50 [3]: 1.22 µM (active)

N/C(=N\[N+](=O)[O-])N/N=C/c1ccc(O)cc1
IC50 [7]: 20.4 µM (active) | IC50 (Large T antigen): > 100 µM (active)

CC/C(=N\NC(=O)CCC(=O)NCc1ccccc1)c1ccc(O)cc1
IC50 (Large T antigen): 34.6 µM (active)

Cc1ccsc1C(=O)N/N=C/c1ccc([N+](=O)[O-])cc1
EC50 (cells [1]): 5.99 µM (active) | EC50 (cells [2]): > 350 µM (not active)

COc1ccc2c3c(n(C)c2c1)[C@@H](CO)N(Cc1ccccc1F)CC31CCN(CC2CC2)CC1
AC50 [8]: 2.61 µM (active)

COc1ccc(-c2ccc3c(c2)[C@H]2[C@H](CCN2Cc2ccncc2)[C@@H](CO)N3)cc1
AC50 [8]: 7.26 µM (active)

COc1ccc2c3c([nH]c2c1)[C@@H](CO)N(C(=O)C1CCCCC1)CC31CCN(Cc2nccs2)CC1
AC50 [8]: 4.44 µM (active)

COc1ccc(C#Cc2ccc3c(c2)[C@@H]2[C@@H](CCN2C(=O)C2CC2)[C@H](CO)N3)cc1
AC50 [8]: 5.56 µM (active)
